Reference: PubChem BioAssay (NCI)
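Method: 48-hour compound exposure of cells in 96-well plates, five concentrations, linear interpolation of endpoints. TGI: total growth inhibition.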

Key:
Assay in all cases: growth of human tumour cells (NCI), 48 h
[1] = test system: SN12C renal
[2] = test system: MALME-3M melanoma
[3] = test system: A549 NSCLC
[4] = test system: RPMI-8226 leukemia
[5] = test system: SNB-19 CNS
[6] = test system: DU-145 prostate
[7] = test system: LOX IMVI melanoma
[8] = test system: SK-MEL-5 melanoma
[9] = test system: KM12 colon
[10] = test system: HOP-92 NSCLC
[11] = test system: HCT-15 colon
[12] = test system: UO-31 renal
[13] = test system: HS 578T breast
[14] = test system: MDA-N
[15] = test system: RXF 393 renal
[16] = test system: SW-620 colon
[17] = test system: 786-0 renal
[18] = test system: SK-MEL-28 melanoma
[19] = test system: IGROV1 ovarian
[20] = test system: BT-549 breast
[21] = test system: OVCAR-3 ovarian
[22] = test system: SNB-75 CNS
[23] = test system: MDA-MB-231 breast
[24] = test system: SR leukemia
[25] = test system: K-562 leukemia
[26] = test system: SF-295 CNS
[27] = test system: HOP-62 NSCLC
[28] = test system: SF-539 CNS
[29] = test system: NCI-H23 lung
[30] = test system: MDA-MB-435
[31] = test system: HL-60(TB) leukemia
[32] = test system: NCI-H460 lung
[33] = test system: T-47D breast
[34] = test system: OVCAR-8 ovarian
[35] = test system: HCT-116 colon
[36] = test system: COLO 205 colon
[37] = test system: M14 melanoma
[38] = test system: TK-10 renal
[39] = test system: EKVX NSCLC
[40] = test system: UACC-257 melanoma
[41] = test system: SK-OV-3 ovarian
[42] = test system: HT29 colon
[43] = test system: A498 renal
[44] = test system: SF-268 CNS
[45] = test system: UACC-62 melanoma
[46] = test system: MOLT-4 leukemia
[47] = test system: NCI/ADR-RES ovarian
[48] = test system: ACHN renal
[49] = test system: CCRF-CEM leukemia
[50] = test system: MCF7 breast
[51] = test system: NCI-H522 lung
[52] = test system: HCC-2998 colon
[53] = test system: OVCAR-5 ovarian
[54] = test system: PC-3 prostate
[55] = test system: NCI-H226 lung
[56] = test system: CAKI-1 renal
[57] = test system: OVCAR-4 ovarian
[58] = test system: U251 CNS

For CCOC(=O)c1nc2ccc(C(F)(F)F)cc2nc1Nc1cc(OC)c(OC)c(OC)c1, the TGI [1] was > 100 µM, the TGI [2] was > 100 µM and the TGI [3] was > 100 µM. For the same molecule, the TGI [4] was > 100 µM, the TGI [5] was > 100 µM and the TGI [6] was > 100 µM. The TGI [7] was > 100 µM, the TGI [8] was > 100 µM and the TGI [9] was > 100 µM. The TGI [10] was > 100 µM, the TGI [11] was > 100 µM and the TGI [12] was > 100 µM. For the same molecule, the TGI [13] was > 100 µM, the TGI [14] was > 100 µM and the TGI [15] was > 100 µM. The TGI [16] was > 100 µM, the TGI [17] was > 100 µM and the TGI [18] was > 100 µM. For the same molecule, the TGI [19] was > 100 µM, the TGI [20] was > 100 µM and the TGI [21] was > 100 µM. The TGI [22] was > 100 µM, the TGI [23] was > 100 µM and the TGI [24] was > 100 µM. For the same molecule, the TGI [25] was > 100 µM, the TGI [26] was > 100 µM and the TGI [27] was > 100 µM. The TGI [28] was > 100 µM, the TGI [29] was > 100 µM and the TGI [30] was > 100 µM. The TGI [31] was > 100 µM, the TGI [32] was > 100 µM and the TGI [33] was > 100 µM. The TGI [34] was > 100 µM, the TGI [35] was > 100 µM and the TGI [36] was > 100 µM. For the same molecule, the TGI [37] was > 100 µM, the TGI [38] was > 100 µM and the TGI [39] was > 100 µM. For the same molecule, the TGI [40] was > 100 µM, the TGI [41] was > 100 µM and the TGI [42] was > 100 µM. For the same molecule, the TGI [43] was > 100 µM, the TGI [44] was > 100 µM and the TGI [45] was > 100 µM. For the same molecule, the TGI [46] was > 100 µM, the TGI [47] was > 100 µM and the TGI [48] was > 100 µM. For the same molecule, the TGI [49] was > 100 µM, the TGI [50] was > 100 µM and the TGI [51] was > 100 µM. For the same molecule, the TGI [52] was > 100 µM, the TGI [53] was > 100 µM and the TGI [54] was > 100 µM.
O=[N+]([O-])C(/C=C(\Cl)[N+](=O)[O-])=C1Nc2ccccc2N1 was tested, and the TGI [1] was > 100 µM, the TGI [2] was > 100 µM and the TGI [3] was > 100 µM. The TGI [4] was > 100 µM, the TGI [55] was 97.2 µM and the TGI [5] was > 100 µM. The TGI [6] was > 100 µM, the TGI [7] was > 100 µM and the TGI [8] was > 100 µM. For the same molecule, the TGI [9] was > 100 µM, the TGI [10] was 87 µM and the TGI [11] was > 100 µM. The TGI [12] was > 100 µM, the TGI [13] was > 100 µM and the TGI [14] was > 100 µM. For the same molecule, the TGI [15] was 95.9 µM, the TGI [16] was > 100 µM and the TGI [17] was > 100 µM. The TGI [18] was > 100 µM, the TGI [19] was > 100 µM and the TGI [20] was > 100 µM. For the same molecule, the TGI [21] was > 100 µM, the TGI [22] was > 100 µM and the TGI [23] was > 100 µM. For the same molecule, the TGI [24] was 75.1 µM, the TGI [25] was > 100 µM and the TGI [26] was > 100 µM. The TGI [27] was > 100 µM, the TGI [28] was 93.3 µM and the TGI [29] was > 100 µM. For the same molecule, the TGI [30] was > 100 µM, the TGI [31] was > 100 µM and the TGI [32] was > 100 µM. For the same molecule, the TGI [33] was 69 µM, the TGI [34] was > 100 µM and the TGI [35] was > 100 µM. For the same molecule, the TGI [36] was > 100 µM, the TGI [37] was > 100 µM and the TGI [38] was > 100 µM. The TGI [39] was > 100 µM, the TGI [40] was > 100 µM and the TGI [56] was 69.4 µM. The TGI [41] was > 100 µM, the TGI [42] was > 100 µM and the TGI [43] was 70.4 µM. For the same molecule, the TGI [44] was > 100 µM, the TGI [57] was > 100 µM and the TGI [45] was > 100 µM. The TGI [58] was > 100 µM, the TGI [46] was > 100 µM and the TGI [47] was > 100 µM. The TGI [48] was > 100 µM, the TGI [49] was 97.5 µM and the TGI [50] was > 100 µM. The TGI [51] was > 100 µM, the TGI [52] was > 100 µM and the TGI [54] was > 100 µM.
